# Patent US11814444B2, “Cyclic polypeptides for PCSK9 inhibition” (Ra Pharmaceuticals, Inc., priority 2018, dated 2023)
# Numbered stars: 1 amine (or outer) side, 2 acyl side, 3 side chain; on linkers, the order of the positions; unused ones are H or OH. Bridge positions count the residues as written; N and C are the ends. Square brackets hold non-standard residues; d marks the D form. Peptide text beside a SMILES is read from it. X3 = O=C([C@@H]1C[C@@H](SCc2ccc(C[*:3])cc2)CN1[*:1])[*:2]; X6 = CC(=O)Oc1ccc2c(c1)CN([*:1])[C@H](C(=O)[*:2])C2; Pyridine(2,6-diCH2) = c1cc(C[*:1])nc(C[*:2])c1; Trp(5-F) = N[C@@H](Cc1c[nH]c2ccc(F)cc12)C(=O)O; Trp(7-aza) = N[C@@H](Cc1c[nH]c2ncccc12)C(=O)O; Pro(cis-4-F) = O=C(O)[C@@H]1C[C@H](F)CN1; 1Nal = N[C@@H](Cc1cccc2ccccc12)C(=O)O; X5 = O=C([C@H](Cc1cnco1)N[*:1])[*:2]; mXylylene = c1cc(C[*:1])cc(C[*:2])c1; Ala(cPr) = N[C@@H](CC1CC1)C(=O)O; Hyp = O=C(O)[C@@H]1C[C@@H](O)CN1; NH(CH2)5NH = C(CCN[*:1])CCN[*:2]; Aad = N[C@@H](CCCC(=O)O)C(=O)O; Chg = N[C@H](C(=O)O)C1CCCCC1; Pen = CC(C)(S)[C@H](N)C(=O)O; Tle = CC(C)(C)[C@H](N)C(=O)O; αMeV = CC(C)[C@](C)(N)C(=O)O; S5 = C=CCCC[C@](C)(N)C(=O)O; NMeS = CN[C@@H](CO)C(=O)O; Nva = CCC[C@H](N)C(=O)O; Thp = NC1(C(=O)O)CCOCC1; Ac4c = NC1(C(=O)O)CCC1; X4 = C(CC[*:2])C[*:1]; Aib = CC(C)(N)C(=O)O; Mpa = O=C(O)CCS
# Assays:
# [1] = biological target: human PCSK9 / human LDLR EGFa domain interaction (Homo sapiens, UniProt Q8NBP7); assay: TR-FRET assay of inhibition of the PCSK9-LDLR protein-protein interaction; type: binding; settings: 20 nM avitag-biotinylated human PCSK9, 20 nM his-tagged human LDLR EGFa domain, 2 hours, room temperature
# human PCSK9 / human LDLR EGFa domain interaction, sequence (Q8NBP7 153-692): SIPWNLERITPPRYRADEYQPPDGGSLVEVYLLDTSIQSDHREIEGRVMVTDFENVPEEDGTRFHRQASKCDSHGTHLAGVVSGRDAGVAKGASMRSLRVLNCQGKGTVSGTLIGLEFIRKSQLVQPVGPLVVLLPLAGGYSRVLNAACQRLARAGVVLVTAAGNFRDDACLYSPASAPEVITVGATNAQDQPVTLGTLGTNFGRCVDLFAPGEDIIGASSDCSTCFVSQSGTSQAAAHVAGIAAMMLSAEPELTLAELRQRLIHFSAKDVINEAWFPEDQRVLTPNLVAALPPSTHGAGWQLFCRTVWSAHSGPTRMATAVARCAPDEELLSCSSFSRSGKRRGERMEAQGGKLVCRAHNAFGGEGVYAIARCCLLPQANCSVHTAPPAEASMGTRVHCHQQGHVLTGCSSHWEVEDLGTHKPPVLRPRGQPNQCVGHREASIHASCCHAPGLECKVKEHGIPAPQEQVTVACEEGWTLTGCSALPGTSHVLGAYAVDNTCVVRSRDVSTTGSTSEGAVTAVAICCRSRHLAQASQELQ
# human PCSK9 / human LDLR EGFa domain interaction, sequence (Q8NBP7 31-152 partner limits assumed): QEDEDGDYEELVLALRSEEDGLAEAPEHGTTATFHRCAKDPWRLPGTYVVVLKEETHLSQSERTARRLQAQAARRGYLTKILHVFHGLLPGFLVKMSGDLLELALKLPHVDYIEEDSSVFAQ
# How it was run: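 Inhibition of PCSK9 binding to the LDLR EGFa domain, each protein at 20 nM, detected by TR-FRET using streptavidin and anti-His donor/acceptor labels (5 nM). Two-hour room-temperature incubation in calcium-containing HEPES buffer.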
# PCSK9 = PCSK9 (Homo sapiens, UniProt Q8NBP7); assay: PCSK9 Alexa FRET Standard assay (displacement of AlexaFluor647 tagged cyclic peptide Reagent A); type: binding; settings: 0.5 nM PCSK9, 20 nM AF cyclic peptide Reagent A
# PCSK9, sequence (Q8NBP7 153-692): as the sequence (Q8NBP7 153-692) above
# Protocol: A solution containing 1 nM biotinylated PCSK9+2.5 nM Lance Streptavidin Europium (Strep-Eu) was made in 50 mM HEPES pH 7.4, 0.15 M NaCl, 5 mM CaCl2), 0.01% BSA, and 0.01% Surfactant P20. A separate solution containing 40 nM of the AlexaFluor tagged cyclic peptide was made in the same buffer system. An Echo was used to transfer 0.750 ul of compound to an assay plate followed by the addition of 15 ul of PCSK9+Stept-Eu and 15 ul of AF peptide. The final assay volume was 30.750 ul containing 0.5 nM PCSK9, 1.25 nM Strep-Eu, and 20 nM AF cyclic peptide. The reaction was incubated at room temperature for at least two hours prior to fluorescence measurements using an Envision Multilabel Reader. IC50 values were determined by fitting data to a sigmoidal dose-response curve using nonlinear regression. Ki was then calculated from the IC50 and the KD of AF cyclic peptide. Counts (B-counts) of the europium-labeled PCSK9 were followed to observe if compounds were […]. A fall off of the B-counts likely indicated a false positive of inhibition. Data from this procedure was reported as “A=‘numerical value’ (nanomolar)”
IC50 [1],IC50 (PCSK9),SMILES
100 to 1000 nM,1000 to 21000 nM,CCC[C@@H]1NC(=O)[C@H](Cc2ccc(O)cc2)NC(=O)[C@H](CCC(=O)O)NC(=O)[C@H](CCC)NC(=O)[C@H](Cc2c[nH]c3ncccc23)NC(=O)[C@H]([C@@H](C)O)NC(=O)[C@H](Cc2c[nH]cn2)NC(=O)[C@H](Cc2ccc(O)cc2)NC(=O)[C@H](C(C)(C)C)NC(=O)CCSCc2cccc(c2)CSC[C@@H](C(N)=O)NC(=O)[C@H](Cc2c[nH]cn2)NC1=O [Compound 247] ([Mpa][Tle]YHT[Trp(7-aza)][Nva]EY[Nva]HC-NH2; linker 1-12 via mXylylene)
100 to 1000 nM,100 to 1000 nM,CCC[C@@H]1NC(=O)[C@H](Cc2ccc(O)cc2)NC(=O)[C@H](C)NC(=O)[C@]2(C)CCC/C=C/CCC[C@](C)(NC1=O)C(=O)NCCCCCNC(=O)CCC[C@H](NC(C)=O)C(=O)N[C@@H](C(C)(C)C)C(=O)N[C@@H](Cc1ccc(O)cc1)C(=O)N1CCC[C@H]1C(=O)N[C@@H]([C@@H](C)O)C(=O)N[C@@H](Cc1cccc3ccccc13)C(=O)N2 [Compound 347] (Ac-[Aad][Tle]YPT[1Nal][S5]AY[Nva][S5]; linker 1-C via NH(CH2)5NH; staple (E) 7-11)
100 to 1000 nM,100 to 1000 nM,CCC[C@@H]1NC(=O)[C@H](Cc2c[nH]c3ncccc23)NC(=O)[C@H]([C@@H](C)O)NC(=O)[C@@H]2CCCN2C(=O)[C@H](Cc2ccc(O)cc2)NC(=O)[C@H](C(C)(C)C)NC(=O)[C@@H](NC(C)=O)CCCC(=O)NCCCC[C@@H](C(N)=O)NC(=O)[C@H]([C@@H](C)O)NC(=O)[C@H](CCC)NC(=O)[C@@H]2Cc3ccc(OC(C)=O)cc3CN2C(=O)[C@H](C)NC1=O [Compound 074] (Ac-[Aad][Tle]YPT[Trp(7-aza)][Nva]A[X6][Nva]TK-NH2; lactam 1-12)
100 to 1000 nM,1 to 100 nM,"CCC[C@H](NC(=O)[C@@H](NC(=O)[C@@H](NC(=O)[C@H](Cc1ccc(O)cc1)NC(=O)[C@@H]1CSCc2cccc(n2)CSC[C@H](NC(=O)[C@@H](NC(=O)[C@H](CCC)NC(=O)[C@H](CCCCN)NC(C)=O)[C@@H](C)CC)C(=O)N[C@@H](Cc2ccc(O)cc2)C(=O)NCC(=O)NCC(=O)N[C@@H](CC(=O)O)C(=O)N1)[C@@H](C)CC)[C@@H](C)CC)C(N)=O [Compound 055] (Ac-K[Nva]ICYGGDCYII[Nva]-NH2; linker 4-9 via Pyridine(2,6-diCH2))"
21000 to 50000 nM,1000 to 21000 nM,CNC(=O)[C@H]1CSCc2cccc(c2)CSC[C@H](NC(C)=O)C(=O)N[C@@H](C(C)(C)C)C(=O)N[C@@H](Cc2ccc(O)cc2)C(=O)N2CCC[C@H]2C(=O)N[C@@H]([C@@H](C)O)C(=O)N[C@@H](Cc2c[nH]c3ncccc23)C(=O)NC(C)(C)C(=O)N[C@@H](C)C(=O)N[C@@H](Cc2ccc(O)cc2)C(=O)N[C@@](C)(C(C)C)C(=O)N[C@@H]([C@@H](C)O)C(=O)N1 [Compound 189] (Ac-C[Tle]YPT[Trp(7-aza)][Aib]AY[αMeV]T[dC]-NHMe; linker 1-12 via mXylylene)
100 to 1000 nM,1000 to 21000 nM,CCC[C@@H]1NC(=O)[C@H](Cc2c[nH]c3ccc(F)cc23)NC(=O)[C@H]([C@@H](C)O)NC(=O)[C@H](Cc2c[nH]cn2)NC(=O)[C@H](Cc2ccc(O)cc2)NC(=O)[C@H](C(C)(C)C)NC(=O)CCSCc2cccc(c2)CSC[C@@H](C(N)=O)NC(=O)[C@H]([C@@H](C)O)NC(=O)[C@H](CCC)NC(=O)[C@H](Cc2ccc(O)cc2)NC(=O)[C@H](CCC(=O)O)NC1=O [Compound 263] ([Mpa][Tle]YHT[Trp(5-F)][Nva]EY[Nva]TC-NH2; linker 1-12 via mXylylene)
1 to 100 nM,1 to 100 nM,CC(=O)N[C@H]1CCCCNC(=O)CCC[C@@H](C(N)=O)NC(=O)[C@H]([C@@H](C)O)NC(=O)[C@](C)(C(C)C)NC(=O)[C@H](Cc2ccc(O)cc2)NC(=O)[C@H](C)NC(=O)C(C)(C)NC(=O)[C@H](Cc2c[nH]c3ncccc23)NC(=O)[C@H]([C@@H](C)O)NC(=O)[C@@H]2C[C@@H]3CN2C(=O)[C@H](Cc2ccc(O)cc2)NC(=O)[C@@H](NC1=O)C(C)(C)SCc1ccc(cc1)CS3 [Compound 349] (Ac-K[Pen]Y[X3]T[Trp(7-aza)][Aib]AY[αMeV]T[Aad]-NH2; lactam 1-12; thioether 2-4)
100 to 1000 nM,100 to 1000 nM,CCC[C@@H]1NC(=O)[C@H](Cc2ccc(O)cc2)NC(=O)[C@H](CCC(=O)O)NC(=O)[C@H](C2CCCCC2)NC(=O)[C@H](Cc2c[nH]c3ncccc23)NC(=O)[C@H]([C@@H](C)O)NC(=O)[C@H](Cc2c[nH]cn2)NC(=O)[C@H](Cc2ccc(O)cc2)NC(=O)[C@H](C(C)(C)C)NC(=O)CCSCc2cccc(c2)CSC[C@@H](C(N)=O)NC(=O)[C@H]([C@@H](C)O)NC1=O [Compound 273] ([Mpa][Tle]YHT[Trp(7-aza)][Chg]EY[Nva]TC-NH2; linker 1-12 via mXylylene)
100 to 1000 nM,1000 to 21000 nM,CCC[C@@H]1NC(=O)[C@H](Cc2c[nH]c3ncccc23)NC(=O)[C@H]([C@@H](C)O)NC(=O)[C@H](Cc2c[nH]cn2)NC(=O)[C@H](Cc2ccc(O)cc2)NC(=O)[C@H](C(C)(C)C)NC(=O)[C@@H](NC(C)=O)CSCc2cccc(c2)CSC[C@@H](C(N)=O)NC(=O)[C@H]([C@@H](C)O)NC(=O)[C@H](CCC)NC(=O)[C@H](Cc2ccc(O)cc2)NC(=O)[C@H](CCC(=O)O)NC1=O [Compound 235] (Ac-C[Tle]YHT[Trp(7-aza)][Nva]EY[Nva]TC-NH2; linker 1-12 via mXylylene)
1 to 100 nM,1 to 100 nM,CCC[C@H](NC(C)=O)C(=O)N[C@H]1CSCc2cccc(c2)CSC[C@@H](C(N)=O)NC(=O)[C@H](Cc2c[nH]c3ccc(F)cc23)NC(=O)[C@@H]2C[C@H](F)CN2C(=O)[C@H](CCCNC(=N)N)NC(=O)CNC(=O)[C@H](CO)N(C)C(=O)[C@H](Cc2c[nH]c3ccc(F)cc23)NC(=O)[C@H](Cc2ccc(O)cc2)NC(=O)[C@H](C(C)(C)C)NC(=O)[C@H]([C@@H](C)CC)NC(=O)[C@H]([C@@H](C)O)NC1=O [Compound 337] (Ac-[Nva]CTI[Tle]Y[Trp(5-F)][NMeS]GR[Pro(cis-4-F)][Trp(5-F)]C-NH2; linker 2-13 via mXylylene)
21000 to 50000 nM,1000 to 21000 nM,CC(=O)N[C@H]1CSCc2cccc(c2)CSC[C@H](C(N)=O)NC(=O)[C@H]([C@@H](C)O)NC(=O)[C@](C)(C(C)C)NC(=O)[C@H](Cc2ccc(O)cc2)NC(=O)[C@H](C)NC(=O)C2(CCC2)NC(=O)[C@H](Cc2c[nH]c3ncccc23)NC(=O)[C@H]([C@@H](C)O)NC(=O)[C@@H]2C[C@@H]3CN2C(=O)[C@H](Cc2ccc(O)cc2)NC(=O)[C@H](NC1=O)[C@H](C)OCCCCO3 [Compound 343] (Ac-C[dT]Y[Hyp]T[Trp(7-aza)][Ac4c]AY[αMeV]T[dC]-NH2; linker 1-12 via mXylylene; linker 2-4 via X4)
100 to 1000 nM,1000 to 21000 nM,CCC[C@@H]1NC(=O)[C@H](Cc2c[nH]c3ncccc23)NC(=O)[C@H]([C@@H](C)O)NC(=O)[C@H](Cc2cnco2)NC(=O)[C@H](Cc2ccc(O)cc2)NC(=O)[C@H](C(C)(C)C)NC(=O)CCSCc2cccc(c2)CSC[C@@H](C(N)=O)NC(=O)[C@H]([C@@H](C)O)NC(=O)[C@H](CCC)NC(=O)[C@H](Cc2ccc(O)cc2)NC(=O)[C@H](CCC(=O)O)NC1=O [Compound 106] ([Mpa][Tle]Y[X5]T[Trp(7-aza)][Nva]EY[Nva]TC-NH2; linker 1-12 via mXylylene)
21000 to 50000 nM,1000 to 21000 nM,CC(=O)N[C@H]1CSCc2cccc(c2)CSC[C@@H](C(N)=O)NC(=O)[C@H]([C@@H](C)O)NC(=O)[C@](C)(C(C)C)NC(=O)[C@H](Cc2ccc(O)cc2)NC(=O)[C@H](C)NC(=O)C2(CCOCC2)NC(=O)[C@H](Cc2c[nH]c3ncccc23)NC(=O)[C@H]([C@@H](C)O)NC(=O)[C@@H]2CCCN2C(=O)[C@H](Cc2ccc(O)cc2)NC(=O)[C@H](C(C)(C)C)NC1=O [Compound 181] (Ac-C[Tle]YPT[Trp(7-aza)][Thp]AY[αMeV]TC-NH2; linker 1-12 via mXylylene)
100 to 1000 nM,1000 to 21000 nM,CCC[C@@H]1NC(=O)[C@H](Cc2ccc(O)cc2)NC(=O)[C@H](CCC(=O)O)NC(=O)[C@H](CC2CC2)NC(=O)[C@H](Cc2c[nH]c3ncccc23)NC(=O)[C@H]([C@@H](C)O)NC(=O)[C@H](Cc2c[nH]cn2)NC(=O)[C@H](Cc2ccc(O)cc2)NC(=O)[C@H](C(C)(C)C)NC(=O)CCSCc2cccc(c2)CSC[C@@H](C(N)=O)NC(=O)[C@H]([C@@H](C)O)NC1=O [Compound 264] ([Mpa][Tle]YHT[Trp(7-aza)][Ala(cPr)]EY[Nva]TC-NH2; linker 1-12 via mXylylene)
21000 to 50000 nM,1000 to 21000 nM,CC(=O)N[C@H]1CSCc2cccc(c2)CSC[C@@H](C(N)=O)NC(=O)[C@H]([C@@H](C)O)NC(=O)[C@](C)(C(C)C)NC(=O)[C@H](Cc2ccc(O)cc2)NC(=O)[C@H](C)NC(=O)C2(CCC2)NC(=O)[C@H](Cc2c[nH]c3ncccc23)NC(=O)[C@H]([C@@H](C)O)NC(=O)[C@@H]2CCCN2C(=O)[C@H](Cc2ccc(O)cc2)NC(=O)[C@H](C(C)(C)C)NC1=O [Compound 183] (Ac-C[Tle]YPT[Trp(7-aza)][Ac4c]AY[αMeV]TC-NH2; linker 1-12 via mXylylene)
